Laboratory results as given in patent US8598355B2, “Amide compound” (Astellas Pharma Inc., priority 2008, dated 2013).

How the values were obtained:
rat EP4 receptor [1] = target: T1, rat EP4 receptor (Rattus norvegicus, UniProt P43114); assay: Rat EP4 receptor antagonistic activity by measurement of cAMP amount (rEP4 cAMP HTRF assay, CHO cells); assay type: cell-based; parameters: expressed in transfected cells; details: inhibition of cAMP, PGE2 100 nM, CHO cells expressing rat EP4
Procedure: Evaluation Test of Rat EP4 Receptor Antagonistic Activity by Measurement of cAMP Amount
CHO cells in which rat EP4 had been forced to be expressed were seeded in 96-well plates at 2×10^4 cells/100 μL and cultured overnight. The culture medium was replaced with 2 μM Indomethacin/0.1% BSA/alpha-MEM, and further, after 60 minutes, replaced with 1 mM IBMX/2 μM Indomethacin/0.1% BSA/alpha-MEM. After 10 minutes, the test compound was added, and further, after 10 minutes, PGE2 was added at a final concentration of 100 nM. The cells were cultured and reacted in a CO2 incubator (37° C., 5% CO2). After 30 minutes, the culture medium was removed and 100 μL/well of 0.2% Triton X-PBS was added for lysis of the cells. The cAMP contained in this cell lysis solution was measured with a cAMP HiRange kit (Cisbio international). The cell lysis solution was disperesed at 10 μL each into a 384-well U-bottom black microplate (Corning), and a d2 reagent and an europium cryptate reagent were added in this order to each well, each in an amount of 5 μL. It was incubated at room temperature for 60 minutes under light shielding. After incubation, the fluorescence of the cryptate at 620 nm and the fluorescence of the d2 at 655 nm were measured using ARVO1420 (PerkinElmer). The cAMPs of 280, 70, 17.5, 4.38, 1.09, 0.27, and 0.068 nM were measured simultaneously for creating a standard curve. The inhibitory rates were calculated by determining the cAMP amount of each test sample to the value obtained by subtracting the cAMP amount of the group without addition of PGE2 from the cAMP amount of the group with addition of PGE2 of 100 nM. IC50 values are calculated by a Logistic regression method.

EP4 receptor = target: T2, EP4 receptor (Homo sapiens, UniProt P35408); assay: EP4 receptor antagonistic activity by measurement of cAMP amount in human Jurkat cells (HTRF); assay type: cell-based; details: inhibition of cAMP, PGE2 100 nM
T2 construct: endogenous in cells; host or cells: Jurkat cells (human leukemia T lymphoma), no transfection described
Procedure: Evaluation Test of EP4 Receptor Antagonistic Activity by Measurement of cAMP Amount in Human Jurkat Cells
Jurkat cells (derived from human leukemia T lymphoma) were cultured with RPMI1640 (added with 10% fetal bovine serum) using a F75 flask. After proliferation to semiconfluency, indomethacin having a final concentration of 5 μM was added thereto, and the cells were further cultured for 18 hours. The cells were collected in a 15-mL Spitz tube, prepared to be 1×10^6 cells/mL using a Cell Banker (Mitsubishi Kagaku Iatron), and stored at −80° C. until used for assay. The cells were cultured in a CO2 incubator (37° C., 5% CO2).
A cAMP HiRange kit (Cisbio international) was used for cAMP measurement. A test compound, PGE2, and the cells were diluted and prepared with an assay buffer. The test compound was prepared to have a 3-fold concentration relative to the final concentration, PGE2 was prepared to be 300 nM, and the Jurkat cells frozen stored were prepared to be 1×10^6 cells/mL by thawing them at 37° C. To a 384-well U-bottom black microplate (Corning) were added the test compound, the cells, and PGE2 in this order in each in an amount of 5 μL, followed by shaking with a plate shaker and incubating at room temperature for 30 minutes. After incubation, 5 μL of a d2 reagent which had been diluted 0.6-fold with a lysis buffer was added to each well, followed by shaking with a plate shaker. Subsequently, 5 μL of an europium cryptate reagent which had been diluted 0.6-fold with a lysis buffer was added to each well, followed by shaking with a plate shaker and incubating at room temperature for 60 minutes under light shielding. After incubation, the fluorescence of the cryptate at 620 nm and the fluorescence of the d2 at 655 nm were measured using ARVO1420 (PerkinElmer). The cAMPs of 280, 70, 17.5, 4.38, 1.09, 0.27, and 0.068 nM were measured simultaneously for creating a standard curve. All measurements were performed in quadruplicate, and inhibitory rates were calculated by determining the cAMP amount of each test sample to the value obtained by subtracting the cAMP amount of the group without addition of PGE2 from the cAMP amount of the group with addition of PGE2 of 100 nM. IC50 values were calculated by a Logistic regression method.
In this connection, as the “assay buffer” and “lysis buffer” above, those as shown below were used:
Assay buffer; 1×HBSS (Hanks buffered salt solution, Nissui Pharmaceutical Co., Ltd.), 20 mM HEPES (pH 7.4, Nakarai Tesque), 0.5 mM IBMX (3-isobutyl-1-methylxanthine, WAKO), 0.02% CHAPS (Sigma), 0.1% Bovine serum albumin (Sigma), 2 μM Indomethacin (Sigma)
Lysis buffer; 50 mM NaPO4, 0.8 M KF, 1% Triton X-100, 0.2% Bovine serum albumin

rat EP4 receptor [2] = target: T1, rat EP4 receptor; assay: Evaluation test of rat EP4 receptor affinity ([3H]PGE2 binding, membrane fraction of HEK293 cells expressing rat EP4); parameters: expressed in transfected cells; host or cells: HEK293 cells, transient transfection with Lipofectamine 2000; membrane fraction; details: [3H]PGE2 0.3 nM
Procedure: Evaluation Test of Rat EP4 Receptor Affinity
Cell Culturing and Transfection
Using a 10 cm collagen-coated dish (Asahi Glass), HEK293 cells were cultured in D-MEM culture medium, the culture medium was removed at a confluence (90 to 100% density state) and washed with a phosphate buffer saline (PBS), and then the cells were detached with N,N,N′,N′-tetrakis(carboxymethyl)ethylenediamine (EDTA). The number of the cells were counted and seeded on a 15 cm collagen-coated dish to a confluence of 70%. On the next day, to an Opti-MEM culture medium at 1.2 mL/dish was added Lipofectamine 2000 (Invitrogen) at 60 μL/dish, followed by leaving to stand at room temperature for 5 minutes. A plasmid in which rat EP4 (Sequence Number 1) had been inserted into a TA cloning site of pcDNA3.1-V5-His-topo was added thereto at 15 μg/dish. After leaving to stand at room temperature for 30 minutes, the resultant was added to the dish and cultured for 20 to 24 hours. The cell culture was carried out in a CO2 incubator (37° C., 5% CO2).
Preparation of Membrane Fraction
The culture medium was removed by suction, 10 mL of cooled PBS was added thereto per 15 cm dish, and the cells were scraped using a cell scraper (Sumitomo Bakelite). They were washed with cooled PBS (1,200 rpm, 4° C., 5 min), and then suspended in 6 mL of cooled 20 mM Tris-HCl (pH 7.4; Nakalai Tesque Inc., including 5 mM EDTA (Nakalai Tesque Inc.) per dish and the resultant was homogenized using a Polytron and the homogenate was centrifuged (26,000 rpm, 20 min, 4° C.). The obtained precipitate was resuspended in cooled 20 mM Tris-HCl and homogenized again using a Polytron, and the homogenate was centrifuged (26,000 rpm, 20 min, 4° C.). The obtained precipitate was resuspended in 50 mM HEPES (pH 7.5; Dojindo Laboratories) at 1 mL per dish, homogenized using a Polytron, and freeze-stored at −80° C. as a membrane fraction. At this time, a part thereof was used for the measurement of the protein concentration. Measurement of the protein concentration was carried out in duplicate using a Bio-Rad Protein assay kit (Bio-Rad Laboratories) in accordance with the appended standard Protocol.
[^3H]PGE2 50 μL (final concentration 0.3 nM; Perkin Elmer), 100 μL (20 μg/well) of a membrane fraction prepared from the rat EP4 expression cell and 50 μL of a test compound were mixed in a 96-well microplate (Sumitomo Bakelite), incubated at room temperature for 1 hour, filtered by suction on a UniFilter-96 GF/B (Perkin Elmer) using a FilterMate Harvester (Perkin Elmer), and then washed three times with 300 μL/well of a cooled assay buffer. Dilution of [^3H]PGE2 and the membrane fraction was carried out using an assay buffer (50 mM HEPES, 10 mM MgCl2), and dilution of the test compound and the unlabeled PGE2 was carried out using DMSO and an assay buffer. Further, in the case of the addition of a human serum albumin (HSA), dilution was carried out using an assay buffer containing 4% HSA (final concentration 1%; Sigma). The UniFilter-96 GF/B was treated preliminarily by washing twice with 200 μL/well of a cooled assay buffer. The UniFilter-96 GF/B after filtration was dried in a dryer overnight, 50 μL/well of MicroScint20 (Perkin Elmer) was added thereto, and then the radioactivity was measured using a TopCount (Perkin Elmer). For measurement of the non-specific binding, an unlabeled PGE2 (final concentration 1 μM; Cayman) was added. All of the measurements were carried out in duplicate, and the specific binding amount was determined by subtracting the non-specific binding amount from the total binding amount. The Ki value was calculated according to the general methods.
In the connection, Ex represents the below-described Example Compound number.

rat EP4 receptor [3] = target: T1, rat EP4 receptor; assay: In vivo rat EP4 receptor antagonistic activity (ONO-4819/LPS, plasma TNF-α); details: SD rat, oral
Procedure: Evaluation Test of In Vivo Rat EP4 Receptor Antagonistic Activity
A solution of PEG 400:20% Tween 80:aqueous 1 M NaHCO3 solution=1:4:5 of a test compound was orally administered to a SD rat (male, 6-week old) under non-fasting conditions, and after 1 hour, ONO-4819 was administered subcutaneously to the back of the rat. After 30 minutes, Lipopolysaccharide (LPS, 0.01 mg/kg) was administered to the tail vein without anesthesia, and after 60 minutes, 0.5 mL of heparin blood was collected from the fundus under ether anesthesia. The blood sample was centrifuged (3000 rpm, 10 minutes) to separate the plasma, and then the TNF-α concentration in the rat plasma was measured by an ELISA kit (see Hepatology Research Journal, vol. 21, 252-260, 2001). A value obtained by subtracting the TNF-α concentration of the group treated with ONO-4819 from the TNF-α concentration of the group not treated with ONO-4819 was taken as 100%, and the inhibitory rates to the value were calculated for the test compounds.
In this connection, Ex represents the below-described Example compound number.

T1 sequence (P43114 whole entry): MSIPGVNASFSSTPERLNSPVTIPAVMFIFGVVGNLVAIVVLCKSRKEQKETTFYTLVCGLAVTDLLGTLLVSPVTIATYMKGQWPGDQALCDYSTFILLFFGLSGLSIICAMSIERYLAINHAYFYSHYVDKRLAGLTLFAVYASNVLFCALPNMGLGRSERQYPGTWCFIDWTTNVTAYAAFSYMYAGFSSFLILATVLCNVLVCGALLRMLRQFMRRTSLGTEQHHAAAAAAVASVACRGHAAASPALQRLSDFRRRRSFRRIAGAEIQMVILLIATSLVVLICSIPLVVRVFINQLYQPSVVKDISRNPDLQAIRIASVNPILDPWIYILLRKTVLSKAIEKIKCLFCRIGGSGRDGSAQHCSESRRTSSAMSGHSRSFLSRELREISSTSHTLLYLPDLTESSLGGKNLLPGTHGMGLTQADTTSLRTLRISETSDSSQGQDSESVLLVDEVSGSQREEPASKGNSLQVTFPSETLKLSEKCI
T2 sequence (P35408 whole entry): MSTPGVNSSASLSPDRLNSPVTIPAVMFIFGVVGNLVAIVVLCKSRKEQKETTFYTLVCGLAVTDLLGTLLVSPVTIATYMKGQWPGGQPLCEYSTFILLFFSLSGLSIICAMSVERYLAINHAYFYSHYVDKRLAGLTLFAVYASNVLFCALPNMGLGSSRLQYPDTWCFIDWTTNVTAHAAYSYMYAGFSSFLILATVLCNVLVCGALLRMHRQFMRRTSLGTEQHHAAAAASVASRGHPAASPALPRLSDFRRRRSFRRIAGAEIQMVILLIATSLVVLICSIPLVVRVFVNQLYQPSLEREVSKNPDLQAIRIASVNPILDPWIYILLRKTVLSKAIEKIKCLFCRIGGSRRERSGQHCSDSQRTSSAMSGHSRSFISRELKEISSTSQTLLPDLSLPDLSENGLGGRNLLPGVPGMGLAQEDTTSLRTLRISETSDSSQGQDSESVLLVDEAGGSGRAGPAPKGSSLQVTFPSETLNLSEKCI

C[C@H](NC(=O)c1cccc2ccn(Cc3ccc(-c4ccccc4)cc3)c12)c1ccc(C(=O)O)cc1 [Example 3, 4-[(1S)-1-({[1-(biphenyl-4-ylmethyl)-1H-indol-7-yl]carbonyl}amino)ethyl]benzoic acid]
IC50 (rat EP4 receptor [1]): 0.99 nM
IC50 (EP4 receptor): 0.11 nM
Ki (rat EP4 receptor [2]): 0.76 nM

O=C(O)c1ccc(CNC(=O)c2cc(C(F)(F)F)cc3ccn(CCOc4ccc(Cl)cc4)c23)cc1 [Example 215]
Inhibitory rate (%) (rat EP4 receptor [3]; dose 0.01 mg/kg): 71%
melting point: 208 to 210 °C
Ki (rat EP4 receptor [2]): 2.6 nM

Cc1cc(C(=O)NC[C@H]2CC[C@H](C(=O)O)CC2)c2c(ccn2Cc2cc3ccccc3cn2)c1 [Example 224]
Inhibitory rate (%) (rat EP4 receptor [3]; dose 0.003 mg/kg): 71%
melting point: 251 to 252 °C (dec.)
Ki (rat EP4 receptor [2]): 2.1 nM
